Key:
[1] = Blood concentration of D-gal after oral dose; format: in vivo, human; conditions: PGM1-CDG patients; 1-1.5 g/kg/day oral
Method: An oral dose of 0.3 g/kg D-gal supplement leads to a blood concentration of D-gal at 0.75 mM, 1.0 g/kg D-gal dose corresponds to 2.25 mM peak concentration of D-gal in blood, while an oral dose of 1.5 g/kg galactose supplement leads to a blood peak concentration of 3.5 mM (Tegtmeyer et al. 2014). The blood concentration of free D-galactose in un-supplemented individuals was below 0.01 mM.

ICAM-1 = ICAM-1 Western blotting with galactose supplementation, patient skin fibroblasts; conditions: patient 5; all doses

- Peak concentration of galactose in blood [1]: 0.75 to 2 mM
Compound: O=C[C@H](O)[C@@H](O)[C@@H](O)[C@H](O)CO [D-gal, D-galactose]
- ICAM-1 expression (ICAM-1): No improvement
